Reference: patent US10829520B2, “Beta-hairpin peptidomimetics” (POLYPHOR AG, priority 2015, dated 2020)
Where a SMILES comes first, the peptide text is derived from it. Bridges are numbered along the chain shown (N, C = ends). Roman numbers before positions name the chains, in order. [ ]: non-standard residue; d: D form. Tle = CC(C)(C)[C@H](N)C(=O)O; dDab = NCC[C@@H](N)C(=O)O; dPip = O=C(O)[C@H]1CCCCN1; Nle = CCCC[C@H](N)C(=O)O; Orn = NCCC[C@H](N)C(=O)O; Dab = NCC[C@H](N)C(=O)O; Sar = CNCC(=O)O

Key:
Type in all cases: cell-based
[1] = tested on: Klebsiella pneumoniae 968733; conditions: 968733
[2] = tested on: Acinetobacter baumannii 872842; conditions: 872842
[3] = tested on: Klebsiella pneumoniae SSI #3010; conditions: SSI #3010
In short: (§1)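 MIC in μg/mL read as absence of visible growth after 18-20 h incubation at 35° C. Bacteria at about 10^6 CFU/mL in MH-II (cation-adjusted) broth plus 0.002% P-80 were exposed to two-fold peptide dilutions per standard CLSI microdilution.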

Escherichia coli 926415 = conditions: 926415
[4] = tested on: Pseudomonas aeruginosa ATCC 27853; conditions: ATCC 27853
In short: as §1

[5] = tested on: Acinetobacter baumannii DSM 30008; conditions: DSM 30008
In short: as §1

[6] = tested on: Escherichia coli ATCC 25922; conditions: ATCC 25922
In short: as §1

[7] = tested on: human red blood cells (hRBC); experiment: Hemolysis of human red blood cells; conditions: red cells of human, 1 h
In short: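 Fresh human red blood cells are washed in PBS, then shaken with peptide (100 μg/mL) at 37° C. for 1 h, final erythrocyte density about 0.9×10^9 cells/mL. After centrifugation, diluted supernatants are read at 540 nm against buffer (0%) and Triton X-100 (100%) lysis controls.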

| SMILES | Klebsiella pneumoniae 968733 MIC [1] | Acinetobacter baumannii 872842 MIC [2] | Klebsiella pneumoniae SSI #3010 MIC [3] | Escherichia coli 926415 MIC (Escherichia coli 926415) | Pseudomonas aeruginosa ATCC 27853 MIC [4] | Acinetobacter baumannii DSM 30008 MIC [5] | Escherichia coli ATCC 25922 MIC [6] | Hemolysis at 100 μg/mL ([7]; 100 μg/mL) | Hemolysis at 100 μg/mL [7]; 100 |
| --- | --- | --- | --- | --- | --- | --- | --- | --- | --- |
| CCCC[C@@H]1NC(=O)[C@@H]2CCCN2C(=O)[C@H]2CCCN2C(=O)[C@H](CO)NC(=O)[C@H](C)NC(=O)[C@H](C(C)(C)C)NC(=O)[C@@H](NC(=O)[C@H](Cc2c[nH]c3ccccc23)NC(C)=O)CSSC[C@@H](C(=O)N[C@@H](CCCN)C(=O)N[C@H](C(=O)N[C@@H](CCN)C(=O)N[C@H]2CCNC(=O)[C@H]([C@@H](C)O)NC(=O)[C@H](CCN)NC(=O)[C@H](CCN)NC(=O)[C@H](CC(C)C)NC(=O)[C@@H](Cc3ccccc3)NC(=O)[C@H](CCN)NC2=O)[C@@H](C)O)NC(=O)[C@H](Cc2ccc(O)cc2)NC(=O)[C@H](CO)NC1=O [Ex. 13] (Ac-WC[Tle]AS[dP]P[Nle]SYC[Orn]T[Dab][Dab][Dab][dF]L[Dab][Dab]T; disulfide 2-11; lactam 15-C) | 1 µg/mL | 0.25 µg/mL | 0.5 µg/mL | 0.5 µg/mL | 0.5 µg/mL | 0.125 µg/mL | 0.5 µg/mL | 1% |  |
| CCCC[C@@H]1NC(=O)[C@@H]2CCCN2C(=O)[C@H]2CCCN2C(=O)[C@H](CO)NC(=O)[C@H](C)NC(=O)[C@H](C(C)(C)C)NC(=O)[C@H](CCN)NC(=O)[C@H](Cc2c[nH]c3ccccc23)NC(=O)[C@@H](NC(C)=O)CSSC[C@@H](C(=O)N[C@@H](CCN)C(=O)N[C@H](C(=O)N[C@@H](CCN)C(=O)N[C@H]2CCNC(=O)[C@H]([C@@H](C)O)NC(=O)[C@H](CCN)NC(=O)[C@H](CCN)NC(=O)[C@H](CC(C)C)NC(=O)[C@@H](Cc3ccccc3)NC(=O)[C@H](CCN)NC2=O)[C@@H](C)O)NC(=O)[C@H](CCCN)NC(=O)[C@H](CCN)NC(=O)[C@H](Cc2ccc(O)cc2)NC(=O)[C@H](CO)NC1=O [Ex. 62] (Ac-CW[Dab][Tle]AS[dP]P[Nle]SY[Dab][Orn]C[Dab]T[Dab][Dab][Dab][dF]L[Dab][Dab]T; disulfide 1-14; lactam 18-C) | 8 µg/mL | 0.5 µg/mL | 0.5 µg/mL | 1 µg/mL | 0.5 µg/mL | 0.5 µg/mL | 0.25 µg/mL | 1% |  |
| CC(=O)N[C@@H](Cc1c[nH]c2ccccc12)C(=O)N[C@H]1CSSC[C@@H](C(=O)N[C@@H](CCN)C(=O)N[C@@H](CCN)C(=O)N[C@@H](CCN)C(=O)N[C@H]2CCNC(=O)[C@H]([C@@H](C)O)NC(=O)[C@H](CCN)NC(=O)[C@H](CCN)NC(=O)[C@H](CC(C)C)NC(=O)[C@@H](Cc3ccccc3)NC(=O)[C@H](CCN)NC2=O)NC(=O)[C@H](Cc2ccc(O)cc2)NC(=O)[C@H]([C@@H](C)O)NC(=O)[C@H](CC(C)C)NC(=O)[C@H](CCCNC(=N)N)NC(=O)[C@H]2CCCN2C(=O)[C@H](C(C)C)NC(=O)[C@H]([C@@H](C)O)NC(=O)[C@H](C(C)C)NC1=O [Ex. 115] (Ac-WCVTV[dP]RLTYC[Dab][Dab][Dab][Dab][Dab][dF]L[Dab][Dab]T; disulfide 2-11; lactam 15-C) | 1 µg/mL | 0.5 µg/mL | 0.5 µg/mL | 0.5 µg/mL | 0.5 µg/mL | 0.5 µg/mL | 0.5 µg/mL | 1% |  |
| CC(=O)N[C@@H](Cc1c[nH]c2ccccc12)C(=O)N[C@H]1CSSC[C@@H](C(=O)N[C@@H](CCCN)C(=O)N[C@H](C(=O)N[C@@H](CCN)C(=O)N[C@@H](CCN)C(=O)N[C@H]2CCNC(=O)[C@H]([C@@H](C)O)NC(=O)[C@H](CCN)NC(=O)[C@H](CCN)NC(=O)[C@H](CC(C)C)NC(=O)[C@@H](Cc3ccccc3)NC(=O)[C@H](CCN)NC2=O)[C@@H](C)O)NC(=O)[C@H](Cc2ccc(O)cc2)NC(=O)[C@H](CO)NC(=O)[C@H]([C@@H](C)O)NC(=O)[C@@H]2CCCN2C(=O)[C@H]2CCCN2C(=O)[C@H](Cc2ccc(O)cc2)NC(=O)[C@H](C)NC(=O)[C@H](C(C)(C)C)NC1=O [Ex. 144] (Ac-WC[Tle]AY[dP]PTSYC[Orn]T[Dab][Dab][Dab][Dab][dF]L[Dab][Dab]T; disulfide 2-11; lactam 16-C) | 1 µg/mL | 0.25 µg/mL | 0.25 µg/mL | 0.5 µg/mL | 0.25 µg/mL | 0.125 µg/mL | 0.25 µg/mL | 4% |  |
| CC(C)C[C@@H]1NC(=O)[C@@H](CC(C)C)NC(=O)[C@H](CCN)NC(=O)[C@@H](NC(=O)[C@H](CCN)NC(=O)[C@@H](NC(=O)[C@H](CCN)NC(=O)CC[C@@H]2NC(=O)CNC(=O)[C@H](CCCN)NC(=O)[C@H](CCN)NC(=O)[C@H](Cc3ccc(O)cc3)NC(=O)[C@H](CO)NC(=O)[C@H](CC(C)C)NC(=O)[C@@H]3CCCN3C(=O)[C@H]3CCCN3C(=O)[C@H](CO)NC(=O)[C@H]([C@@H](C)O)NC(=O)[C@H](C(C)C)NC(=O)[C@H](CCN)NC(=O)[C@H](Cc3c[nH]c4ccccc34)NC2=O)[C@@H](C)O)CCNC(=O)[C@H]([C@@H](C)O)NC(=O)[C@H](CCN)NC(=O)[C@H](CCN)NC1=O [Ex. 94] (I: cyclo(LSY[Dab][Orn]GEW[Dab]VTS[dP]P) / II: [Dab]T[Dab][Dab][Dab][dL]L[Dab][Dab]T; amide I:7-II:N; lactam II:4-II:C) | 0.5 µg/mL | 0.25 µg/mL | 0.125 µg/mL | 1 µg/mL | 0.25 µg/mL | 0.0625 µg/mL | 0.0625 µg/mL |  | 1% |
| CC(C)C[C@@H]1NC(=O)[C@H](CCCNC(=N)N)NC(=O)[C@@H](CCN)NC(=O)[C@H](C(C)C)NC(=O)[C@@H](NC(=O)[C@H](Cc2ccc(O)cc2)NC(=O)[C@H](CO)NC(=O)[C@@H](N)Cc2c[nH]c3ccccc23)CSSC[C@@H](C(=O)N[C@@H](Cc2ccc(O)cc2)C(=O)N[C@@H](CC(N)=O)C(=O)N(C)CC(=O)N[C@@H](CCN)C(=O)N[C@H](C(=O)N[C@@H](CCN)C(=O)N[C@H]2CCNC(=O)[C@H]([C@@H](C)O)NC(=O)[C@H](CCN)NC(=O)[C@H](CCN)NC(=O)[C@H](CC(C)C)NC(=O)[C@@H](CC(C)C)NC(=O)[C@H](CCN)NC2=O)[C@@H](C)O)NC1=O [Ex. 169] (H-WSYCV[dDab]RLCYN[Sar][Dab]T[Dab][Dab][Dab][dL]L[Dab][Dab]T; disulfide 4-9; lactam 16-C) | 2 µg/mL | 1 µg/mL | 0.25 µg/mL | 0.5 µg/mL | 1 µg/mL | 1 µg/mL | 0.5 µg/mL | 1% |  |
| CC(C)C[C@@H]1NC(=O)[C@@H](Cc2ccccc2)NC(=O)[C@H](CCN)NC(=O)[C@@H](NC(=O)[C@H](CCN)NC(=O)[C@@H](NC(=O)[C@H](CCN)NC(=O)[C@@H]2CSSC[C@H](NC(=O)[C@@H](N)Cc3c[nH]c4ccccc34)C(=O)N[C@@H](C(C)(C)C)C(=O)N[C@@H](C)C(=O)N[C@@H](CO)C(=O)N3CCCC[C@@H]3C(=O)N3CCC[C@H]3C(=O)N[C@@H](CC(C)C)C(=O)N[C@@H](CO)C(=O)N[C@@H](Cc3ccc(O)cc3)C(=O)N2)[C@@H](C)O)CCNC(=O)[C@H]([C@@H](C)O)NC(=O)[C@H](CCN)NC(=O)[C@H](CCN)NC1=O [Ex. 114] (H-WC[Tle]AS[dPip]PLSYC[Dab]T[Dab][Dab][Dab][dF]L[Dab][Dab]T; disulfide 2-11; lactam 15-C) | 0.5 µg/mL | 0.125 µg/mL | 0.25 µg/mL | 0.0625 µg/mL | 0.5 µg/mL | 0.5 µg/mL | 0.125 µg/mL | 6% |  |
| CC(C)C[C@@H]1NC(=O)[C@H](CO)NC(=O)[C@H](Cc2ccc(O)cc2)NC(=O)[C@@H]2CCCN2C(=O)[C@H]2CCCN2C(=O)[C@H]([C@@H](C)O)NC(=O)[C@H](C)NC(=O)[C@H](Cc2ccc(O)cc2)NC(=O)[C@@H](NC(=O)[C@@H](N)CC(C)C)CSSC[C@@H](C(=O)NCC(=O)N[C@@H](CCN)C(=O)N[C@H](C(=O)N[C@@H](CCN)C(=O)N[C@H]2CCNC(=O)[C@H]([C@@H](C)O)NC(=O)[C@H](CCN)NC(=O)[C@H](CCN)NC(=O)[C@H](CC(C)C)NC(=O)[C@@H](CC(C)C)NC(=O)[C@H](CCN)NC2=O)[C@@H](C)O)NC1=O [Ex. 158] (H-LCYAT[dP]PYSLCG[Dab]T[Dab][Dab][Dab][dL]L[Dab][Dab]T; disulfide 2-11; lactam 16-C) | 8 µg/mL | 0.25 µg/mL | 0.125 µg/mL | 4 µg/mL | 0.5 µg/mL | 0.25 µg/mL | 0.125 µg/mL | <1% |  |
